Source: ChEMBL document CHEMBL4011590, “Structure-activity relationship studies on 3,5-dinitrophenyl tetrazoles as antitubercular agents” (Eur J Med Chem, 2017)
Values after ≈ are worked out from the molar mass of the structure shown.

Experiments:
[1] = test system: Mycobacterium tuberculosis; assay: Antimycobacterial activity against Mycobacterium tuberculosis H37Rv CNCTC My 331/88 after 14 days by micromethod; assay type: functional; conditions: H37Rv CNCTC My 331/88, 336 h
[2] = test system: Mycobacterium tuberculosis; assay: Antimycobacterial activity against Mycobacterium tuberculosis H37Rv CNCTC My 331/88 after 21 days by micromethod; assay type: functional; conditions: H37Rv CNCTC My 331/88, 504 h
[3] = test system: Mycobacterium avium; assay: Antimycobacterial activity against Mycobacterium avium CNCTC My 330/80 after 14 days by micromethod; assay type: functional; conditions: CNCTC My 330/80, 336 h
[4] = test system: Mycobacterium avium; assay: Antimycobacterial activity against Mycobacterium avium CNCTC My 330/80 after 21 days by micromethod; assay type: functional; conditions: CNCTC My 330/80, 504 h
[5] = test system: Mycobacterium kansasii; assay: Antimycobacterial activity against Mycobacterium kansasii CNCTC My 235/80 after 7 days by micromethod; assay type: functional; conditions: CNCTC My 235/80, 168 h
[6] = test system: Mycobacterium kansasii; assay: Antimycobacterial activity against Mycobacterium kansasii CNCTC My 235/80 after 14 days by micromethod; assay type: functional; conditions: CNCTC My 235/80, 336 h
[7] = test system: Mycobacterium kansasii; assay: Antimycobacterial activity against Mycobacterium kansasii CNCTC My 235/80 after 21 days by micromethod; assay type: functional; conditions: CNCTC My 235/80, 504 h
[8] = test system: Mycobacterium kansasii; assay: Antimycobacterial activity against Mycobacterium kansasii isolate 6509/96 after 7 days by micromethod; assay type: functional; conditions: isolate 6509/96, 168 h
[9] = test system: Mycobacterium kansasii; assay: Antimycobacterial activity against Mycobacterium kansasii isolate 6509/96 after 14 days by micromethod; assay type: functional; conditions: isolate 6509/96, 336 h
[10] = test system: Mycobacterium kansasii; assay: Antimycobacterial activity against Mycobacterium kansasii isolate 6509/96 after 21 days by micromethod; assay type: functional; conditions: isolate 6509/96, 504 h
[11] = test system: CHO-K1; assay: Cytotoxicity against CHOK1 cells after 24 hrs by MTT assay; assay type: cell-based; conditions: Cricetulus griseus, CHO-K1, 24 h
[12] = test system: Staphylococcus aureus; assay: Antibacterial activity against Staphylococcus aureus ATCC 6538 after 24 hrs by broth microdilution method; assay type: functional; conditions: ATCC 6538, 24 h
[13] = test system: Staphylococcus aureus; assay: Antibacterial activity against Staphylococcus aureus ATCC 6538 after 48 hrs by broth microdilution method; assay type: functional; conditions: ATCC 6538, 48 h
[14] = test system: Staphylococcus aureus; assay: Antibacterial activity against methicillin-resistant Staphylococcus aureus HK5996/08 after 24 hrs by broth microdilution method; assay type: functional; conditions: HK5996/08, 24 h
[15] = test system: Staphylococcus aureus; assay: Antibacterial activity against methicillin-resistant Staphylococcus aureus HK5996/08 after 48 hrs by broth microdilution method; assay type: functional; conditions: HK5996/08, 48 h
[16] = test system: Staphylococcus epidermidis; assay: Antibacterial activity against Staphylococcus epidermidis HK6966/08 after 24 hrs by broth microdilution method; assay type: functional; conditions: HK6966/08, 24 h
[17] = test system: Staphylococcus epidermidis; assay: Antibacterial activity against Staphylococcus epidermidis HK6966/08 after 48 hrs by broth microdilution method; assay type: functional; conditions: HK6966/08, 48 h
[18] = test system: Enterococcus sp.; assay: Antibacterial activity against Enterococcus sp. HK14365/08 after 24 hrs by broth microdilution method; assay type: functional; conditions: HK14365/08, 24 h
[19] = test system: Enterococcus sp.; assay: Antibacterial activity against Enterococcus sp. HK14365/08 after 48 hrs by broth microdilution method; assay type: functional; conditions: HK14365/08, 48 h
[20] = test system: Escherichia coli; assay: Antibacterial activity against Escherichia coli ATCC 8739 after 24 hrs by broth microdilution method; assay type: functional; conditions: ATCC 8739, 24 h
[21] = test system: Escherichia coli; assay: Antibacterial activity against Escherichia coli ATCC 8739 after 48 hrs by broth microdilution method; assay type: functional; conditions: ATCC 8739, 48 h
[22] = test system: Klebsiella pneumoniae; assay: Antibacterial activity against Klebsiella pneumoniae HK11750/08 after 24 hrs by broth microdilution method; assay type: functional; conditions: HK11750/08, 24 h
[23] = test system: Klebsiella pneumoniae; assay: Antibacterial activity against Klebsiella pneumoniae HK11750/08 after 48 hrs by broth microdilution method; assay type: functional; conditions: HK11750/08, 48 h
[24] = test system: Klebsiella pneumoniae; assay: Antibacterial activity against extended spectrum beta-lactamase producing Klebsiella pneumoniae HK14368/08 after 24 hrs by broth microdilution method; assay type: functional; conditions: HK14368/08, 24 h
[25] = test system: Klebsiella pneumoniae; assay: Antibacterial activity against extended spectrum beta-lactamase producing Klebsiella pneumoniae HK14368/08 after 48 hrs by broth microdilution method; assay type: functional; conditions: HK14368/08, 48 h
[26] = test system: Pseudomonas aeruginosa; assay: Antibacterial activity against Pseudomonas aeruginosa ATCC 9027 after 24 hrs by broth microdilution method; assay type: functional; conditions: ATCC 9027, 24 h
[27] = test system: Pseudomonas aeruginosa; assay: Antibacterial activity against Pseudomonas aeruginosa ATCC 9027 after 48 hrs by broth microdilution method; assay type: functional; conditions: ATCC 9027, 48 h
[28] = test system: Candida albicans; assay: Antifungal activity against Candida albicans ATCC 44859 after 24 hrs by broth microdilution method; assay type: functional; conditions: ATCC 44859, 24 h
[29] = test system: Candida albicans; assay: Antifungal activity against Candida albicans ATCC 44859 after 48 hrs by broth microdilution method; assay type: functional; conditions: ATCC 44859, 48 h
[30] = test system: Candida tropicalis; assay: Antifungal activity against Candida tropicalis 156 after 24 hrs by broth microdilution method; assay type: functional; conditions: Candida tropicalis, 156, 24 h
[31] = test system: Candida tropicalis; assay: Antifungal activity against Candida tropicalis 156 after 48 hrs by broth microdilution method; assay type: functional; conditions: Candida tropicalis, 156, 48 h
[32] = test system: Pichia kudriavzevii; assay: Antifungal activity against Candida krusei E28 after 24 hrs by broth microdilution method; assay type: functional; conditions: E28, 24 h
[33] = test system: Pichia kudriavzevii; assay: Antifungal activity against Candida krusei E28 after 48 hrs by broth microdilution method; assay type: functional; conditions: E28, 48 h
[34] = test system: Nakaseomyces glabratus; assay: Antifungal activity against Candida glabrata 20/I after 24 hrs by broth microdilution method; assay type: functional
[35] = test system: Nakaseomyces glabratus; assay: Antifungal activity against Candida glabrata 20/I after 48 hrs by broth microdilution method; assay type: functional
[36] = test system: Trichosporon asahii; assay: Antifungal activity against Trichosporon asahii 1188 after 24 hrs by broth microdilution method; assay type: functional; conditions: Trichosporon asahii, 1188, 24 h
[37] = test system: Trichosporon asahii; assay: Antifungal activity against Trichosporon asahii 1188 after 48 hrs by broth microdilution method; assay type: functional; conditions: Trichosporon asahii, 1188, 48 h
[38] = test system: Aspergillus fumigatus; assay: Antifungal activity against Aspergillus fumigatus 231 after 24 hrs by broth microdilution method; assay type: functional; conditions: Aspergillus fumigatus, 231, 24 h
[39] = test system: Aspergillus fumigatus; assay: Antifungal activity against Aspergillus fumigatus 231 after 48 hrs by broth microdilution method; assay type: functional; conditions: Aspergillus fumigatus, 231, 48 h
[40] = test system: Lichtheimia corymbifera; assay: Antifungal activity against Absidia corymbifera 272 after 24 hrs by broth microdilution method; assay type: functional; conditions: Lichtheimia corymbifera, 272, 24 h
[41] = test system: Lichtheimia corymbifera; assay: Antifungal activity against Absidia corymbifera 272 after 48 hrs by broth microdilution method; assay type: functional; conditions: Lichtheimia corymbifera, 272, 48 h
[42] = test system: Trichophyton mentagrophytes; assay: Antifungal activity against Trichophyton mentagrophytes 445 after 72 hrs by broth microdilution method; assay type: functional; conditions: Trichophyton mentagrophytes, 445, 72 h
[43] = test system: Trichophyton mentagrophytes; assay: Antifungal activity against Trichophyton mentagrophytes 445 after 120 hrs by broth microdilution method; assay type: functional; conditions: Trichophyton mentagrophytes, 445, 120 h

SMILES: COc1ccc(Cn2nnnc2-c2cc([N+](=O)[O-])cc([N+](=O)[O-])c2)cc1
- MIC99 [1]: 8 µM (≈ 2.85 µg/mL)
- MIC99 [2]: 8 µM (≈ 2.85 µg/mL)
- MIC99 [3]: 16 µM (≈ 5.7 µg/mL)
- MIC99 [4]: 32 µM (≈ 11.4 µg/mL)
- MIC99 [5]: 16 µM (≈ 5.7 µg/mL)
- MIC99 [6]: 32 µM (≈ 11.4 µg/mL)
- MIC99 [7]: 32 µM (≈ 11.4 µg/mL)
- MIC99 [8]: 8 µM (≈ 2.85 µg/mL)
- MIC99 [9]: 8 µM (≈ 2.85 µg/mL)
- MIC99 [10]: 16 µM (≈ 5.7 µg/mL)
- IC50 [11]: 21 µM
- MIC [12]: 62.5 µM (≈ 22.3 µg/mL)
- MIC [13]: 62.5 µM (≈ 22.3 µg/mL)
- MIC [14]: 31.2 µM (≈ 11.1 µg/mL)
- MIC [15]: 15.6 µM (≈ 5.57 µg/mL)
- MIC [16]: 62.5 µM (≈ 22.3 µg/mL)
- MIC [17]: 62.5 µM (≈ 22.3 µg/mL)
- MIC [18]: 62.5 µM (≈ 22.3 µg/mL)
- MIC [19]: 62.5 µM (≈ 22.3 µg/mL)
- MIC [20]: 125 µM (≈ 44.5 µg/mL)
- MIC [21]: 62.5 µM (≈ 22.3 µg/mL)
- MIC [22]: 250 µM (≈ 89.1 µg/mL)
- MIC [23]: 125 µM (≈ 44.5 µg/mL)
- MIC [24]: 250 µM (≈ 89.1 µg/mL)
- MIC [25]: 125 µM (≈ 44.5 µg/mL)
- MIC [26]: > 500 µM
- MIC [27]: > 500 µM
- MIC [28]: 250 µM (≈ 89.1 µg/mL)
- MIC [29]: 250 µM (≈ 89.1 µg/mL)
- MIC [30]: 500 µM (≈ 178 µg/mL)
- MIC [31]: 500 µM (≈ 178 µg/mL)
- MIC [32]: 250 µM (≈ 89.1 µg/mL)
- MIC [33]: 250 µM (≈ 89.1 µg/mL)
- MIC [34]: 500 µM (≈ 178 µg/mL)
- MIC [35]: 500 µM (≈ 178 µg/mL)
- MIC [36]: 500 µM (≈ 178 µg/mL)
- MIC [37]: 500 µM (≈ 178 µg/mL)
- MIC [38]: 500 µM (≈ 178 µg/mL)
- MIC [39]: 500 µM (≈ 178 µg/mL)
- MIC [40]: 500 µM (≈ 178 µg/mL)
- MIC [41]: 500 µM (≈ 178 µg/mL)
- MIC [42]: 500 µM (≈ 178 µg/mL)
- MIC [43]: 500 µM (≈ 178 µg/mL)
